Laboratory results as given in patent publication US4238491A (priority 1977, dated 1980).
Read-outs that look alike come from different tables or passages of the source.

Key:
blood pressure of SHR = assay: Antihypertensive effect by single administration, SHR, direct cannulation; type: in vivo, rat (spontaneously hypertensive rats; conditions: for average rate of decrease in blood pressure: over 6 hours; for blood pressure decrease: 6 hours after; for ED (20% blood pressure decrease): Rattus norvegicus, read-out: DB20 (20% blood pressure descending dose)
Protocol: The effect was examined through both direct and modified tail-cuff methods using male SHRs aged 25 to 30 weeks and weighing about 300 g.
In the direct cannulation method, polyethylene cannules were inserted in femoral arteries of the conscious unanesthesized SHRs under back-fixation,and MR solution was administered in an amount of 0.1 mg/100 g of weight for venous injection, and 1 ml/100 g of weight for oral administration. Changes in the blood pressure over 6 hours were measured with a multi-purpose polygraph RM-85 made by NIHON KODEN Co., Ltd. MR was dissolved in 0.9% NaCl aqueous solution with 1 N-HCl, and the solution was neutralized for use.

rats [1] = assay: Sub-acute toxicity: histopathological examination; type: in vivo, rat (SD (SPF)); conditions: for Adrenal Hypertrophy: 5 rats
Source text: Rats were sacrificed under anesthesia with ether.
Five samples were randomly selected from each group, and paraffin-sectionedpreparations of the organs were made by a routine method. The preparations were stained with hematoxyline-eosin stain and Luxol-fast blue (central nervous system only) and examined histopathologically.

[2] = Change of MR content in blood (serum level); type: in vivo, dogs, rabbits and rats
Protocol: In case of oral administration, the animals were not permitted to eat for 24 hours, except for the experiment of biotransformation.

[3] = Excretion into bile after venous injection; type: in vivo; conditions: rabbit, iv, within 6 hours, of amount administered
Protocol: From the Figure it is recognized that an amount as small as 0.3 to 0.5% of the administered MR is discharged into bile within 6 hours after administration.

rats [4] = system: rats
Protocol: The rate were bred in individual cages under the following conditions: temperature, 23°±2° C.; relative humidity, 55±5%; free taking of solid food (CE-2, CLEA Japan, Inc.) and tap water.
Volume of the medicine solution for one administration was dicided to be 1 ml per 100 g of weight, and the dose was administered once a day, 6 times a week over 5 weeks. The control group received the same volume of 0.2% carboxymethyl cellulose solution.
After the final administration followed by 24 hours fast, the following analyses were made: Glucose (by o-toluidine-boric acid method); Total Protein (by biurett method); Blood Uria Nitrogen (diacetyl monoxime method); GOT and GPT Activities (Reitman-Frankel method); Alkaline Phosphatase Activity (Kind-King method); and Sodium and Potassium Content (flame-photometer).

[5] = in vivo; cited from earlier work
histamine = conditions: in vivo; cited from earlier work

With `COC(=O)[C@H]1[C@H]2C[C@@H]3c4[nH]c5cc(OC)ccc5c4CCN3C[C@H]2C[C@@H](O)[C@@H]1OC` [MR, methylreserpate] the “average rate of decrease in blood pressure” value (shortened to “average rate of decrease”) (blood pressure of SHR; 2 mg/kg venous injection) was 13%, the “onset of blood pressure decrease” value (blood pressure of SHR; 4 mg/kg oral) was 2 h and the blood pressure decrease (blood pressure of SHR; 4 mg/kg oral) was 18%. For the same compound, the “average rate of decrease” value (blood pressure of SHR; 4 mg/kg venous injection) was 22.5%, the blood pressure decrease (blood pressure of SHR; 8 mg/kg oral) was 26% and the “average rate of decrease” value (blood pressure of SHR; 8 mg/kg venous injection) was 28%. It also gave a blood pressure decrease (blood pressure of SHR; 16 mg/kg oral) of 37%, an ED (20% blood pressure decrease) (blood pressure of SHR; iv, I.V.) of 3.5 mg/kg and an ED (20% blood pressure decrease) (blood pressure of SHR; po, P.O.) of 11.9 mg/kg. The “antihypertensive effect compared with RCN” value (blood pressure of SHR; oral) was “almost the same”, the antihypertensive effect (blood pressure of SHR; oral, summary for SHR and dogs) was “prolonged antihypertensive effect” and the “antihypertensive effect compared with RCN” value (blood pressure of SHR; venous injection) was “less intense”. For the same compound, the “Adrenal Hypertrophy” value (rats [1]; 25.0 mg/kg) was “- - - + -”, the “Adrenal Hypertrophy” value (rats [1]; 50.0 mg/kg) was “+ + ++ + +” and the “Adrenal Hypertrophy” value (rats [1]; 100.0 mg/kg) was “+ + + + +”. For the same compound, the “Lung Alveolar wall Congestion” value (rats [1]; 200.0 mg/kg, 5 dead rats) was “+ ++ ++ ++ +++”, the “Lung Alveolar wall Pneumonia” value (rats [1]; 200.0 mg/kg, 5 dead rats) was “++ ++ ++ + +” and the “Lung Alveolus Pneumonia” value (rats [1]; 200.0 mg/kg, 5 dead rats) was “- - - - -”. The “Lung Bronchus Bronchitis” value (rats [1]; 200.0 mg/kg, 5 dead rats) was “- - - - -”, the Pancreas (rats [1]; 200.0 mg/kg, 5 dead rats) was “- - - - -” and the Prostate (rats [1]; 200.0 mg/kg, 5 dead rats) was “- - - - /”. The “Salivary Mucous gl.” value (rats [1]; 200.0 mg/kg, 5 dead rats) was “- - - - -”, the “Salivary Serous gl. Atrophy” value (rats [1]; 200.0 mg/kg, 5 dead rats) was “- - - - -” and the “Spleen Atrophy” value (rats [1]; 200.0 mg/kg, 5 dead rats) was “- - - - -”. The “Spleen Congestion” value (rats [1]; 200.0 mg/kg, 5 dead rats) was “++ ++ ++ + +”, the “Spleen Haemosiderosis” value (rats [1]; 200.0 mg/kg, 5 dead rats) was “+ + + + +” and the Stomach (rats [1]; 200.0 mg/kg, 5 dead rats) was “- - - - -”. The Testis (rats [1]; 200.0 mg/kg, 5 dead rats) was “- - - - -”, the Thyroid (rats [1]; 200.0 mg/kg, 5 dead rats) was “/ - - - /” and the “Thyroid Atrophy” value (rats [1]; 200.0 mg/kg, 5 dead rats) was “+++ / +++ / /”. For the same compound, the Urine bladder (rats [1]; 200.0 mg/kg, 5 dead rats) was “- - - - -”, the “Bone marrow Hypoplasia” value (rats [1]; rat, in vivo) was “- - - - -” and the Central nerve (rats [1]; rat, in vivo) was “- - - - -”. The “Heart Endocardium” value (rats [1]; rat, in vivo) was “- - - - -”, the “Heart Epicardium” value (rats [1]; rat, in vivo) was “- - - - -” and the “Heart Myocardium Focal collapse” value (rats [1]; rat, in vivo) was “+ - - + -”. For the same compound, the Heart finding (rats [1]; rat, in vivo) was “focal collapse of heart muscles”, the Hypophysis (rats [1]; rat, in vivo) was “- - - - -” and the Intestine (rats [1]; rat, in vivo) was “- - - - -”. For the same compound, the Kidney (rats [1]; rat, in vivo) was “- - - - -”, the “Liver Glisson's capsule Cell inf.” value (rats [1]; rat, in vivo) was “- + + + +” and the “Liver Kupffer cell Swelling” value (rats [1]; rat, in vivo) was “- - + + -”. The “Liver cell Degeneration” value (rats [1]; rat, in vivo) was “- - - - -”, the “Liver cell cord Cell inf.” value (rats [1]; rat, in vivo) was “- - + - -” and the “Liver cell cord Congestion” value (rats [1]; rat, in vivo) was “- - - - -”. The “Liver: Glisson's capsule or liver cell cords; Kupffer cells” value (rats [1]; rat, in vivo) was “lymphocytic cell infiltration in Glisson's capsule or liver cell cords, and swelling of Kupffer cells”, the “Lung Alveolar wall Congestion” value (rats [1]; rat, in vivo) was “- - - - -” and the “Lung Alveolar wall Pneumonia” value (rats [1]; rat, in vivo) was “- - - - -”. The “Lung Alveolus Pneumonia” value (rats [1]; rat, in vivo) was “- + - - -”, the “Lung Bronchus Bronchitis” value (rats [1]; rat, in vivo) was “- - - - +” and the Lymph node (rats [1]; rat, in vivo) was “- - - - -”. The Pancreas (rats [1]; rat, in vivo) was “- - - - -”, the Prostate (rats [1]; rat, in vivo) was “- - - - -” and the “Salivary Mucous gl.” value (rats [1]; rat, in vivo) was “- - - - -”. The “Salivary Serous gl. Atrophy” value (rats [1]; rat, in vivo) was “- - - - -”, the “Spleen Atrophy” value (rats [1]; rat, in vivo) was “- - - - -” and the “Spleen Congestion” value (rats [1]; rat, in vivo) was “- - - - -”. For the same compound, the “Spleen Haemosiderosis” value (rats [1]; rat, in vivo) was “+ + + + +”, the Stomach (rats [1]; rat, in vivo) was “- - - - -” and the Testis (rats [1]; rat, in vivo) was “- - - - -”. The “Thymus Atrophy” value (rats [1]; rat, in vivo) was “- - - - -”, the Thyroid (rats [1]; rat, in vivo) was “- - - - -” and the Urine bladder (rats [1]; rat, in vivo) was “- - - - -”. For the same compound, the kidney histopathology (rats [1]; rat, in vivo) was “no pathological change”, the other organs (rats [1]; rat, in vivo) was “No other pathological change” and the “pathological change of adrenal” value (rats [1]; rat, in vivo) was “reversible hypertrophy of cortex”. For the same compound, the stomach mucous (rats [1]; rat, in vivo) was “no pathological change of stomach mucous”, the “absorption in the digestive tract” value ([2]; in vivo) was “readily absorbed” and the “correlation of serum level pattern with pattern of blood pressure decrease” value ([2]; in vivo) was “high corralation”. The “absorption from digestive tracts compared with RSP and RCN” value ([2]; oral) was “more readily absorbed”, the Tmax ([2]; serum, po, 10 mg/kg, after administration, read-out: time of maximum serum level) was 1 to 2 h and the dose excreted at 6 h [3] was 0.3 to 0.5%. The ALP (rats [4]; 25.0 mg/kg, 30 days) was 17.0±0.93 K.A.U, the BUN (rats [4]; 25.0 mg/kg, 30 days) was 15.7 ± 0.77 mg/dL and the GOT (rats [4]; 25.0 mg/kg, 30 days) was 92.2±8.74 K.U. The Glucose (rats [4]; 25.0 mg/kg, 30 days) was 155.4 ± 6.06 mg/dL, the “Total Protein” value (rats [4]; 25.0 mg/kg, 30 days) was 6.65 ± 0.08 g/dL and the ALP (rats [4]; 50.0 mg/kg, 30 days) was 18.7±1.39 K.A.U. The “Total Protein” value (rats [4]; 50.0 mg/kg, 30 days) was 6.76 ± 0.18 g/dL, the BUN (rats [4]; 50.0 mg/kg, 30 days, P<0.05) was 17.2 ± 0.56 mg/dL and the GOT (rats [4]; 50.0 mg/kg, 30 days, P<0.05) was 117.1±10.48 K.U. For the same compound, the Glucose (rats [4]; 50.0 mg/kg, 30 days, P<0.05) was 113.7 ± 5.25 mg/dL, the ALP (rats [4]; 100.0 mg/kg, 30 days) was 22.7±2.91 K.A.U and the “Total Protein” value (rats [4]; 100.0 mg/kg, 30 days) was 6.57 ± 0.28 g/dL. For the same compound, the BUN (rats [4]; 100.0 mg/kg, 30 days, P<0.05) was 17.5 ± 1.01 mg/dL, the GOT (rats [4]; 100.0 mg/kg, 30 days, P<0.05) was 114.9±7.02 K.U and the Glucose (rats [4]; 100.0 mg/kg, 30 days, P<0.05) was 100.5 ± 8.60 mg/dL. For the same compound, the serum glucose (rats [4]; 50 and 100 mg/kg groups) was “decrease of glucose value”, the other serum biochemistry (rats [4]; all determinations other than glucose) was “all within the scope of normal values” and the ALP (rats [4]; rat, in vivo) was 18.8±10.82. The BUN (rats [4]; rat, in vivo) was 14.6±0.35, the GOT (rats [4]; rat, in vivo) was 80.4±7.55 and the Glucose (rats [4]; rat, in vivo) was 149.3±3.36. For the same compound, the “Total Protein” value (rats [4]; rat, in vivo) was 7.06±0.09, the antihypertensive effect [5] was “no antihypertensive effect” and the histamine (histamine) was “increse of histamine”.
